Bridge positions count the residues as written; N and C are the ends. Square brackets hold non-standard residues; d marks the D form. Peptide text beside a SMILES is read from it. * marks the point of attachment. DOTA = O=C(O)CN1CCN(CC(=O)O)CCN(CC(=O)*)CCN(CC(=O)O)CC1; 1Nal = N[C@@H](Cc1cccc2ccccc12)C(=O)O; Bta = N[C@@H](Cc1csc2ccccc12)C(=O)O; Thr(ol) = C[C@@H](O)[C@H](N)CO
Experiments:
[1] = biological target: T1, human somatostatin receptor subtype hsst3 (Homo sapiens, UniProt P32745); assay: In vitro binding affinity of peptide analogs (Table III), hsst3; conditions: DOTA complexed with stable Y or In
Protocol: Table III, presents the binding affinity of the new compounds to human somatostatin receptor subtypes as compared to the compound, Y-DOTA-TATE, described by Srinivasan et al. (U.S. Pat. No. 5,830,431).
(§1) IC50 values were determined as described by Reubi et al. (Eur J Nuc Med 28:836-846, 2001).

[2] = biological target: human somatostatin receptor subtype hsst5 (Homo sapiens, UniProt P35346); assay: In vitro binding affinity of peptide analogs (Table III), hsst5; conditions: DOTA complexed with stable Y or In
Protocol: as §1

[3] = biological target: T2, somatostatin human receptor subtype (hsst) 2 (Homo sapiens, UniProt P30874); assay: In vitro binding affinity, transfected cell lines, hsst 2; conditions: compared with compound 7 (Y-DOTA-TOC)
T2 construct: expressed in transfected cells

[4] = biological target: T1, human somatostatin receptor subtype hsst3; assay: In vitro binding affinity, transfected cell lines, hsst 3; design: expressed in transfected cells; conditions: compared with cpd. 6 (Y-DOTA-LAN)

T2 sequence (P30874 whole entry): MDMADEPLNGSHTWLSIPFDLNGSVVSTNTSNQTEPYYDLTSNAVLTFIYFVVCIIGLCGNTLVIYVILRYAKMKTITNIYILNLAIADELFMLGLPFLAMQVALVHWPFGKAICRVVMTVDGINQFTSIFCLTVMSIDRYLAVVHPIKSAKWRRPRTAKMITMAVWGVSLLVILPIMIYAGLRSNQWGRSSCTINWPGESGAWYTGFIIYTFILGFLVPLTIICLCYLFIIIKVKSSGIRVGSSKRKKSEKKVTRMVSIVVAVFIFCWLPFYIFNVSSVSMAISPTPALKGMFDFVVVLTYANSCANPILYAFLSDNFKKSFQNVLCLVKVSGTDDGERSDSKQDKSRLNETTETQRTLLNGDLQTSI
T1 sequence (P32745 whole entry): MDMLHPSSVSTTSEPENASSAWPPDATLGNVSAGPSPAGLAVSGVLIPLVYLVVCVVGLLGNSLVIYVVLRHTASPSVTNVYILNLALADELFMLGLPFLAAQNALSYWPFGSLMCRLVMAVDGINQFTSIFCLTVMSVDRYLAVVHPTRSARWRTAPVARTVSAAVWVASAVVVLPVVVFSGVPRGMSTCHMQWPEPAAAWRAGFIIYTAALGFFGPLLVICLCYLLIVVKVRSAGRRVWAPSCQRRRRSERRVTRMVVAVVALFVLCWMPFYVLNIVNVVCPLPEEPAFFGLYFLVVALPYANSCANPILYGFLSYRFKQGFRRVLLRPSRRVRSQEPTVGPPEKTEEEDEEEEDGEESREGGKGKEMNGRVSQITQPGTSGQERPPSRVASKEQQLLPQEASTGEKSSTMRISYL
human somatostatin receptor subtype hsst5, sequence (P35346 whole entry): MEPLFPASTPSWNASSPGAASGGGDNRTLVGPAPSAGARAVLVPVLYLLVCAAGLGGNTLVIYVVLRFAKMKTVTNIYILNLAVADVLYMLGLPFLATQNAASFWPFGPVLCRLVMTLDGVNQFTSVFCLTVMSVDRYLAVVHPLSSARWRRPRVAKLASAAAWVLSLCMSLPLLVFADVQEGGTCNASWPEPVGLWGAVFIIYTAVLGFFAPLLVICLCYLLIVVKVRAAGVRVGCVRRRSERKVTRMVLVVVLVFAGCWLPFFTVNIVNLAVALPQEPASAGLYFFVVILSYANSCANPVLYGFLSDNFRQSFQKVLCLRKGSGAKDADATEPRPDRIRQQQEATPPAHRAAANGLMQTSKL

Compound	IC50 [1]	IC50 [2]	binding affinity to sst 2 relative to compound 7 [3]	affinity to sst 3 relative to cpd. 6 [4]
C[C@@H](O)[C@H](NC(=O)[C@@H]1CSSC[C@H](NC(=O)[C@@H](Cc2ccccc2)NC(=O)CN2CCN(CC(=O)O)CCN(CC(=O)O)CCN(CC(=O)O)CC2)C(=O)N[C@@H](Cc2ccc(O)c(I)c2)C(=O)N[C@H](Cc2c[nH]c3ccccc23)C(=O)N[C@@H](CCCCN)C(=O)N[C@@H]([C@@H](C)O)C(=O)N1)C(=O)O [compound 2]	170 nM	65 nM		
C[C@@H](O)[C@@H]1NC(=O)[C@H](CCCCN)NC(=O)[C@@H](Cc2c[nH]c3ccccc23)NC(=O)[C@H](Cc2cccc3ccccc23)NC(=O)[C@@H](NC(=O)[C@@H](Cc2ccccc2)NC(=O)CN2CCN(CC(=O)O)CCN(CC(=O)O)CCN(CC(=O)O)CC2)CSSC[C@@H](C(=O)N[C@H](CO)[C@@H](C)O)NC1=O [cpd. 8, ^90Y-labelled DOTA-(D)Phe-cyclo[Cys-(D) 1-Nal-(D)Trp-Lys-Thr-Cys]-Thr-ol, metal not drawn] ({DOTA}-[dF]C[1Nal][dW]KTC[Thr(ol)]; disulfide 2-7)			approx. three times better	approx. five times better
C[C@@H](O)[C@@H]1NC(=O)[C@H](CCCCN)NC(=O)[C@@H](Cc2c[nH]c3ccccc23)NC(=O)[C@H](Cc2csc3ccccc23)NC(=O)[C@@H](NC(=O)[C@@H](Cc2ccccc2)NC(=O)CN2CCN(CC(=O)O)CCN(CC(=O)O)CCN(CC(=O)O)CC2)CSSC[C@@H](C(=O)N[C@H](CO)[C@@H](C)O)NC1=O [cpd. 9, ^90Y-labelled DOTA-(D)Phe-cyclo[Cys-(D)3-benzothienylalanyl-(D)Trp-Lys-Thr-Cys]-Thr-ol, metal not drawn] ({DOTA}-[dF]C[Bta][dW]KTC[Thr(ol)]; disulfide 2-7)			approx. three times better	

Reference: patent publication US20040044177A1, “Peptide compounds having improved binding affinity to somatostatin receptors” (priority 2002, published 2004)
